In patent publication US8084457B2, “Pharmaceutically active 4,6-disubstituted aminopyrimidine derivatives as modulators of protein kinases” (Lead Discovery Center GmbH, priority 2003, dated 2011):

How the values were obtained:
Type in all cases: biochemical
EGFR = EGFR (Homo sapiens, UniProt P00533); assay: General kinase assay, selectivity panel: EGFR; details: 10 μM of compound, in comparison to DMSO (0% inhibition)
Protocol: (§1) The inhibitory effect of compounds according to the present invention on the activity of protein kinases, depicted in Table 1, can be measured according to the following protocol:
(§2) Pipettinq Sequence: • 1) Add 10 μl 4 fold concentrated Substrate+4 fold concentrated ATP in 3 fold concentrated Reaction Buffer to each well of Assay Plate • 2) Add 10 μl 4 fold concentrated inhibitor in 4% DMSO in H2O to each well except to C− and C+ wells • 3) Add 10 μl 4% DMSO in H2O to C− and C+ wells • 4) Add 10 μl 500 mM EDTA in H2O to − wells • 5) Add 10 μl 50 μCi/ml Adenosine 5′-[γ-^33P]triphosphate in H2O to each well • 6) Add 10 μl 4 fold concentrated kinase in Reaction Buffer to each well • 7) Incubate 1 hr at room temperature • 8) Add 10 μl 50 mM EDTA in H2O to each well except to C− wells • 9) Prepare MAPH plates by adding 200 μl 0.75% H3PO4 to each well • 10) Exhaust 0.75% H3PO4 using Millipore vacuum station • 11) Add 60 μl 0.75% H3PO4 to each well of MAPH Filter Plate • 12) Transfer 30 μl sample per well from Assay Plate to corresponding well of MAPH Filter Plate • 13) Incubate 30 min at room temperature • 14) Wash each well of MAPH Filter Plates 3× with 200 μl 0.75% H3PO4 using Millipore vacuum station. • 15) Add 20 μl Scintillation Liquid to each well of MAPH Filter Plate • 16) Seal MAPH Filter Plate • 17) Store MAPH Filter Plate 30 min in darkness • 18) Quantify radioactivity
(§3) The activity of these protein kinases is depicted as % inhibition in the presence of 10 μM of compound in comparison to DMSO (0% inhibition).

Abl = Abl (Homo sapiens, UniProt P00519); assay: General kinase assay, selectivity panel: Abl; details: 10 μM of compound, in comparison to DMSO (0% inhibition)
Protocol: as §1, §2, §3

PDGFR = assay: General kinase assay, selectivity panel: PDGFR; details: 10 μM of compound, in comparison to DMSO (0% inhibition)
Protocol: as §1, §2, §3

c-Kit = c-Kit (Homo sapiens, UniProt P10721); assay: General kinase assay, selectivity panel: c-Kit; details: 10 μM of compound, in comparison to DMSO (0% inhibition)
Chain of c-Kit (P10721 26-976): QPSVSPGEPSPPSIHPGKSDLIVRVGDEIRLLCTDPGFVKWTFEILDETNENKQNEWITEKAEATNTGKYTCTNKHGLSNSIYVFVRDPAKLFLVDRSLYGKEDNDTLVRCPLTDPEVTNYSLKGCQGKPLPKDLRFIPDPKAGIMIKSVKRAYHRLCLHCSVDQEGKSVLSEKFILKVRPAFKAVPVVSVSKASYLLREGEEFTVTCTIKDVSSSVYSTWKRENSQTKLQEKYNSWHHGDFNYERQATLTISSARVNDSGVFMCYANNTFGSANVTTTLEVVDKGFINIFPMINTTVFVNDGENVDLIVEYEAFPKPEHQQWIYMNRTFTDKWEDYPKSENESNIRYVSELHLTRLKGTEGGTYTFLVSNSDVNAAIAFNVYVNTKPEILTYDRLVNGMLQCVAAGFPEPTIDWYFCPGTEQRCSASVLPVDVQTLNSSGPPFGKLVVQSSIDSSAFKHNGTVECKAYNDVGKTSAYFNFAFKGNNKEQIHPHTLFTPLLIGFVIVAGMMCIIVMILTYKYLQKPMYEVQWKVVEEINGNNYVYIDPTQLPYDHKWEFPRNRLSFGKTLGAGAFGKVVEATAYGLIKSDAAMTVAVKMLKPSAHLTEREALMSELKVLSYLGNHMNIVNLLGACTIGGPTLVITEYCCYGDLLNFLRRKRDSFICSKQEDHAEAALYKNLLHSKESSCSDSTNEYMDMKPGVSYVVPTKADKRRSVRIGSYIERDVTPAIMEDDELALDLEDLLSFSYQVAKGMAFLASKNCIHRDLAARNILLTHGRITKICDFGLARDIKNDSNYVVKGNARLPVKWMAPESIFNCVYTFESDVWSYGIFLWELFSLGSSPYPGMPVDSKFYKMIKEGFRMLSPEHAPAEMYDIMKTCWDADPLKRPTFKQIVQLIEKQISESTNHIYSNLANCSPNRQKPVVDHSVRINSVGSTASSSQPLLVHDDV
Protocol: as §1, §2, §3

CDK1 = CDK1 (Homo sapiens, UniProt P06493); assay: General kinase assay, selectivity panel: CDK1; details: 10 μM of compound, in comparison to DMSO (0% inhibition)
Chain of CDK1 (P06493 whole entry, species assumed): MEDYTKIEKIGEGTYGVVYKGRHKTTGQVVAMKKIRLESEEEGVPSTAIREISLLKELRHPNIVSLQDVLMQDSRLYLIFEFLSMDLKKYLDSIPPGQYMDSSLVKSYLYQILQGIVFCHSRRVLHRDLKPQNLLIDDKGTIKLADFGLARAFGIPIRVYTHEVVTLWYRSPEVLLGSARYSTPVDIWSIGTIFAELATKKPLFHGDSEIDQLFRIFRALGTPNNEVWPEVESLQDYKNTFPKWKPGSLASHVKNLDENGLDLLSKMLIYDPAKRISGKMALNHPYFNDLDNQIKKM
Chain of CDK1 (P14635 whole entry partner, species assumed): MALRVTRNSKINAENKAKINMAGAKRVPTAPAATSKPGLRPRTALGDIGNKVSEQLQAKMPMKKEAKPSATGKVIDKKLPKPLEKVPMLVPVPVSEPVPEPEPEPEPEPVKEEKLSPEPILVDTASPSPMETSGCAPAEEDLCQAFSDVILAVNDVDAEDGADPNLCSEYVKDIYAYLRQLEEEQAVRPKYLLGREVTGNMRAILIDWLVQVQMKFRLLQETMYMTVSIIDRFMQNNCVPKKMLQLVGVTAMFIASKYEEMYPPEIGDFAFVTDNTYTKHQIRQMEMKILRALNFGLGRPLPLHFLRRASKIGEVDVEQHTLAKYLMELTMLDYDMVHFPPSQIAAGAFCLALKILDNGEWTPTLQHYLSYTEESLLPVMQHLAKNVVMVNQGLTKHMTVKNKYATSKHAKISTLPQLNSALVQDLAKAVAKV
Protocol: as §1, §2, §3

p56 Lck = p56 Lck (Homo sapiens, UniProt P06239); assay: General kinase assay, selectivity panel: p56 Lck; details: 10 μM of compound, in comparison to DMSO (0% inhibition)
Chain of p56 Lck (P06239 whole entry): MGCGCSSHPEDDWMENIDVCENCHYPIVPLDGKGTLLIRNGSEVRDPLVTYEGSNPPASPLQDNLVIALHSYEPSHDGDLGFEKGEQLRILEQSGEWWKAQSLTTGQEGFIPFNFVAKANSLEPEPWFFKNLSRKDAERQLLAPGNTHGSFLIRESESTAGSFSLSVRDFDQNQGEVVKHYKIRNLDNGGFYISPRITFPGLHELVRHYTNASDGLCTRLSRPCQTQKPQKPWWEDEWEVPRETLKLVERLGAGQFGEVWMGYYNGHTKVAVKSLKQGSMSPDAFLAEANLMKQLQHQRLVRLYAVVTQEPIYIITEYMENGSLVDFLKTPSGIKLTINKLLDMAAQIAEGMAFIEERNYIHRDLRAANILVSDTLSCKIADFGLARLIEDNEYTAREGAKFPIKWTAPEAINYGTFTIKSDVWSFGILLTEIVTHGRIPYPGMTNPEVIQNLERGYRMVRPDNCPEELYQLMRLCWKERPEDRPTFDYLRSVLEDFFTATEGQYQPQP
Protocol: as §1, §2, §3

GSK-3β = GSK-3β (Homo sapiens, UniProt P49841); assay: General kinase assay, selectivity panel: GSK-3β; details: 10 μM of compound, in comparison to DMSO (0% inhibition)
Chain of GSK-3β (P49841 whole entry, species assumed): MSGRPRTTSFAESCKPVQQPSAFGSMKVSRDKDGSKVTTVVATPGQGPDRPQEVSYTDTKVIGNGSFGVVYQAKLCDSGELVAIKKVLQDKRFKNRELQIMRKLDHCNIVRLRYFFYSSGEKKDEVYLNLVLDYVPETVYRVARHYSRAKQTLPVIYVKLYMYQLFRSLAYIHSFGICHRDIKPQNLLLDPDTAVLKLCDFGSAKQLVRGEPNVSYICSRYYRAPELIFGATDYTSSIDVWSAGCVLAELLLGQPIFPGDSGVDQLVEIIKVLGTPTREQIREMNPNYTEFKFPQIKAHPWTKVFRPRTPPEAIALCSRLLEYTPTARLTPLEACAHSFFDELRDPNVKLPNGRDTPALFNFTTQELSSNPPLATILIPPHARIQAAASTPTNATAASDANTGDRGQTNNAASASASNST
Protocol: as §1, §2, §3

CDK4 = CDK4 (Homo sapiens, UniProt P11802); assay: Kinase assay, CDK4 activity range (Table 2)
Chain of CDK4 (P11802 whole entry, species assumed): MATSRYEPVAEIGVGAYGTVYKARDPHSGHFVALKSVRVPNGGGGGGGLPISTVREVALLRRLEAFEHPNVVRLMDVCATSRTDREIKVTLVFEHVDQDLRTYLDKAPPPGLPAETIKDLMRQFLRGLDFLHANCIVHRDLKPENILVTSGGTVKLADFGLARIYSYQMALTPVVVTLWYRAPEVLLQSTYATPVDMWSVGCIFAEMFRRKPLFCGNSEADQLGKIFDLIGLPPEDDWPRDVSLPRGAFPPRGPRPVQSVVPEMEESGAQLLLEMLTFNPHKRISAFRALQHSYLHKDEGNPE
Chain of CDK4 (P24385 whole entry partner, species assumed): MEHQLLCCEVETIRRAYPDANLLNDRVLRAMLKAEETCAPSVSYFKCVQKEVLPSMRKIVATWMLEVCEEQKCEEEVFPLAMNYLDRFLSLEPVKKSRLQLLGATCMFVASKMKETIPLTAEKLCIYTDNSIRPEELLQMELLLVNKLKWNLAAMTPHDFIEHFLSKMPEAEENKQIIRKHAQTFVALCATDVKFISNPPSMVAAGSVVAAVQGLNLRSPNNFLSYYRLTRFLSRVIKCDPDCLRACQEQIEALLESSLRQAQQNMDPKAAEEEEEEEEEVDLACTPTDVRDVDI

CDK9/Cyclin T1 = biological target: T1, CDK9/Cyclin T1 (Homo sapiens, UniProt P50750); assay: Kinase assay using CDK9/Cyclin T1; details: read-out: CDK9 (activity range)
T1 construct: made in house; host or cells: HEK293 cells, recombinant adenovirus
T1 sequence (P50750 whole entry): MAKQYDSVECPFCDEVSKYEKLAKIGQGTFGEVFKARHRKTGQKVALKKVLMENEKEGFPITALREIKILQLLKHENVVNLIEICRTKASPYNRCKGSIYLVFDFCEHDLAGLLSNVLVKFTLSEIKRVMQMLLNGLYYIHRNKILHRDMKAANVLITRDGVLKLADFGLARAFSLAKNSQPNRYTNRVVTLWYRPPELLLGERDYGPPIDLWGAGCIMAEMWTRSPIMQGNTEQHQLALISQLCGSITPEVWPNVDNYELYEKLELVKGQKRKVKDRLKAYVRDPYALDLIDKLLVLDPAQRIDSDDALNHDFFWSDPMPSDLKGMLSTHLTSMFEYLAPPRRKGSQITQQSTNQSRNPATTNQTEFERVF
T1 sequence (O60563 whole entry partner): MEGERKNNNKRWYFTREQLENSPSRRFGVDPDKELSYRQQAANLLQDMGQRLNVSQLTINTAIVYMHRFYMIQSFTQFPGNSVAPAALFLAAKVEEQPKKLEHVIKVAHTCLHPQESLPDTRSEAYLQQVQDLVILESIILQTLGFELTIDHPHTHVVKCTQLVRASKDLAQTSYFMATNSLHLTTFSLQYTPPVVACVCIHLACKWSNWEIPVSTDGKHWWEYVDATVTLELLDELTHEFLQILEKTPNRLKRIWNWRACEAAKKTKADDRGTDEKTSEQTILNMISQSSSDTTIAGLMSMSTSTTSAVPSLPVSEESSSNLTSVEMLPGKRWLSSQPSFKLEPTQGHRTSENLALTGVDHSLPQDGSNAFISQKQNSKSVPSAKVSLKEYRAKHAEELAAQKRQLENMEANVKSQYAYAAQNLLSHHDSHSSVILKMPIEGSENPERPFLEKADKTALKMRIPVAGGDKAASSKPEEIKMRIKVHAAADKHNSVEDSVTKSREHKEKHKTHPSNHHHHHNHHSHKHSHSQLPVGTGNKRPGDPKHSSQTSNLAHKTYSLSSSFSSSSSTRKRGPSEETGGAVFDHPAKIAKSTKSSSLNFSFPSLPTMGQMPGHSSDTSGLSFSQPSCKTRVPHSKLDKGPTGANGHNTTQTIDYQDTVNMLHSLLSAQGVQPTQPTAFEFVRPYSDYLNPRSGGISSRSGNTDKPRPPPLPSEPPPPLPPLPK
Outline: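 Recombinant CDK9/Cyclin T1 produced via adenoviral expression from gateway-cloned cDNAs. Kinase reaction run essentially per a published protocol.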

CDK2/CyclinA = biological target: T2, CDK2/CyclinA (Homo sapiens, UniProt P24941); assay: Kinase assay determining CDK2/CyclinA activity; details: read-out: CDK2 (activity range)
T2 construct: purchased Proqinase
Protocol: Kinase Assays Determining CDK2/CyclinA and CDK5/p35 Activity:
Kinase assays were performed as described by the manufacturers recommendations (Proqinase for CDK2/CyclinA and Upsate for CDK5/p35).

SMILES	EGFR (% inhibition) (EGFR)	Abl (% inhibition) (Abl)	PDGFR (% inhibition) (PDGFR)	c-Kit (% inhibition) (c-Kit)	CDK1 (% inhibition) (CDK1)	p56 Lck (% inhibition) (p56 Lck)	GSK-3β (% inhibition) (GSK-3β)	IC50 (CDK4)	IC50 (CDK9/Cyclin T1)	IC50 (CDK2/CyclinA)
COc1ccccc1-c1cc(Nc2ccc(NC(=O)[C@H]3Cc4ccccc4CN3)cc2)ncn1 [Compound 65]	a (inhibition greater than 80%: a)	b (inhibition between 80 and 50%: b)	b (inhibition between 80 and 50%: b)	b (inhibition between 80 and 50%: b)	b (inhibition between 80 and 50%: b)	b (inhibition between 80 and 50%: b)	–	–	–	–
COc1ccccc1-c1cc(Nc2ccc(NC(=O)C3(N)CCCC3)cc2)ncn1 [Compound 68]	a (inhibition greater than 80%: a)	b (inhibition between 80 and 50%: b)	b (inhibition between 80 and 50%: b)	b (inhibition between 80 and 50%: b)	b (inhibition between 80 and 50%: b)	b (inhibition between 80 and 50%: b)	–	–	–	–
COc1ccccc1-c1cc(Nc2ccc(NC(=O)[C@H]3CCCN3)cc2)ncn1 [Compound 91]	a (inhibition greater than 80%: a)	b (inhibition between 80 and 50%: b)	b (inhibition between 80 and 50%: b)	–	b (inhibition between 80 and 50%: b)	b (inhibition between 80 and 50%: b)	c (inhibition between 50 and 30%: c)	–	–	–
COc1ccccc1-c1cc(Nc2ccc(NC(=O)c3ccc(N)cc3)cc2)ncn1 [Compound 8]	–	–	–	b (inhibition between 80 and 50%: b)	a (inhibition greater than 80%: a)	b (inhibition between 80 and 50%: b)	–	–	–	–
COc1ccccc1-c1cc(Nc2ccc(N)cc2)ncn1 [Compound 22]	a (inhibition greater than 80%: a)	–	c (inhibition between 50 and 30%: c)	b (inhibition between 80 and 50%: b)	a (inhibition greater than 80%: a)	b (inhibition between 80 and 50%: b)	c (inhibition between 50 and 30%: c)	–	–	–
CCCS(=O)(=O)Nc1cc(Nc2cc(-c3cccc(N)c3)ncn2)ccc1C [Compound 116]	a (inhibition greater than 80%: a)	–	c (inhibition between 50 and 30%: c)	–	a (inhibition greater than 80%: a)	b (inhibition between 80 and 50%: b)	a (inhibition greater than 80%: a)	–	–	–
COc1cccc(-c2cc(Nc3ccc(NC(=O)[C@@H]4CCCCN4)cc3)ncn2)c1OC [(186)]	–	–	–	–	–	–	–	1000 to 10000 nM	1000 to 10000 nM	10000 to 250000 nM
COc1ccccc1-c1cc(Nc2ccc(NC(=O)[C@@H](N)C(C)C)cc2)ncn1 [(143)]	–	–	–	–	–	–	–	1000 to 10000 nM	1 to 1000 nM	1000 to 10000 nM
COc1ccccc1-c1cc(Nc2ccc(NC(C)=O)cc2)ncn1 [Compound 10]	b (inhibition between 80 and 50%: b)	–	c (inhibition between 50 and 30%: c)	b (inhibition between 80 and 50%: b)	a (inhibition greater than 80%: a)	b (inhibition between 80 and 50%: b)	b (inhibition between 80 and 50%: b)	–	–	–
NC1CCCCC1NC(=O)c1ccc(Nc2cc(-c3ccccc3OCc3ccccc3)ncn2)cc1 (stereo not drawn) [(198)]	–	–	–	–	–	–	–	1 to 1000 nM	1 to 1000 nM	1 to 1000 nM
COc1ccccc1-c1cc(Nc2cccc(NC(=O)[C@@H]3CCCCN3)c2)ncn1 [(128)]	–	–	–	–	–	–	–	1000 to 10000 nM	1 to 1000 nM	1 to 1000 nM
COc1ccccc1-c1cc(Nc2ccc(NC(=O)[C@@H](N)c3ccccc3)cc2)ncn1 [(81)]	–	–	–	–	–	–	–	1000 to 10000 nM	1 to 1000 nM	1000 to 10000 nM
COc1ccccc1-c1cc(Nc2ccc(NC(=O)CC3CCCCN3)cc2)ncn1 (stereo not drawn) [(59)]	–	–	–	–	–	–	–	1 to 1000 nM	1 to 1000 nM	1000 to 10000 nM
Cc1ccc(Nc2cc(-c3cccc(N)c3)ncn2)cc1NS(C)(=O)=O [Compound 12]	a (inhibition greater than 80%: a)	–	c (inhibition between 50 and 30%: c)	b (inhibition between 80 and 50%: b)	a (inhibition greater than 80%: a)	b (inhibition between 80 and 50%: b)	a (inhibition greater than 80%: a)	–	–	–
Cc1ccc(Nc2cc(-c3ccccc3)ncn2)cc1NS(C)(=O)=O [(106)]	–	–	–	–	–	–	–	10000 to 250000 nM	1 to 1000 nM	1 to 1000 nM
COc1ccccc1-c1cc(Nc2ccc(NC(=O)NC3CCCCC3)cc2)ncn1 [Compound 38]	c (inhibition between 50 and 30%: c)	–	b (inhibition between 80 and 50%: b)	b (inhibition between 80 and 50%: b)	b (inhibition between 80 and 50%: b)	b (inhibition between 80 and 50%: b)	c (inhibition between 50 and 30%: c)	–	–	–
COc1ccccc1-c1cc(Nc2ccc(NC(=O)Cc3ccccc3)cc2)ncn1 [Compound 71]	c (inhibition between 50 and 30%: c)	–	b (inhibition between 80 and 50%: b)	b (inhibition between 80 and 50%: b)	a (inhibition greater than 80%: a)	b (inhibition between 80 and 50%: b)	c (inhibition between 50 and 30%: c)	–	–	–
COc1ccccc1-c1cc(Nc2ccc(NC(=O)[C@@H]3Cc4ccccc4CN3)cc2)ncn1 [(65)]	–	–	–	–	–	–	–	10000 to 250000 nM	1 to 1000 nM	1000 to 10000 nM
CC(C)Oc1ccccc1-c1cc(Nc2ccc(C(=O)N[C@@H]3CCCC[C@H]3N)cc2)ncn1 (racemic) [(199)]	–	–	–	–	–	–	–	1000 to 10000 nM	1 to 1000 nM	1000 to 10000 nM
COc1ccccc1-c1cc(Nc2ccc(C(N)=O)cc2)ncn1 [(14)]	–	–	–	–	–	–	–	10000 to 250000 nM	1 to 1000 nM	1 to 1000 nM
COc1ncccc1-c1cc(Nc2ccc(NC(=O)[C@@H]3CCCCN3)cc2)ncn1 [(171)]	–	–	–	–	–	–	–	1000 to 10000 nM	1 to 1000 nM	1000 to 10000 nM
COc1ccccc1-c1cc(Nc2ccc(NC(=O)[C@H]3CCCN3)cc2)ncn1 [(91)]	–	–	–	–	–	–	–	1000 to 10000 nM	1 to 1000 nM	1000 to 10000 nM
COc1ccc(-c2cc(Nc3ccc(NC(=O)[C@@H]4CCCCN4)cc3)ncn2)c(OC)c1 [(187)]	–	–	–	–	–	–	–	1 to 1000 nM	1 to 1000 nM	1000 to 10000 nM
COc1ccccc1-c1cc(Nc2ccc(C(=O)NC3CCCNC3)cc2)ncn1 (stereo not drawn) [Compound 86]	a (inhibition greater than 80%: a)	c (inhibition between 50 and 30%: c)	b (inhibition between 80 and 50%: b)	–	a (inhibition greater than 80%: a)	b (inhibition between 80 and 50%: b)	b (inhibition between 80 and 50%: b)	–	–	–
COc1ccccc1-c1cc(Nc2cccc(S(N)(=O)=O)c2)ncn1 [(150)]	–	–	–	–	–	–	–	10000 to 250000 nM	1 to 1000 nM	1 to 1000 nM
COc1ccccc1-c1cc(Nc2ccc(C(=O)NC3CCCNC3)cc2)ncn1 (stereo not drawn) [(86)]	–	–	–	–	–	–	–	1 to 1000 nM	1 to 1000 nM	1 to 1000 nM
CC(C)Oc1ccccc1-c1cc(Nc2ccc(NC(=O)c3ccc(N)cc3)cc2)ncn1 [Compound 58]	b (inhibition between 80 and 50%: b)	–	–	–	a (inhibition greater than 80%: a)	a (inhibition greater than 80%: a)	a (inhibition greater than 80%: a)	–	–	–
